Assay results reported in patent publication US20090042820A1, “Tubulin Binding Anti Cancer Agents And Prodrugs Thereof” (Threshold Pharmaceuticals, Inc., priority 2004, published 2009).
Like-named read-outs stand apart in the source and are kept apart here.

Columns and labels:
MES-SA = assay: Alamar Blue antiproliferation assay, MES-SA; format: cell-based; details: 3 Day
[1] = Metabolic stability in mouse liver microsomes; format: in vitro ADME; details: 5 μM, 1 mg/mL protein, NADPH, 37° C.
Experimental: An in vitro assessment of metabolic stability of compounds was performed using commercially available mouse liver microsomes (MLM) containing cytochrome P450 enzymes (Cedra Corp, Austin, Tex.). A solutions (5 μM) of a compound and microsomes (1 mg/mL protein) was prepared. P450 enzymatic reactions were initiated by adding an NADPH solution. Enzymatic reactions were carried out in a thermostated shaking water bath kept at 37° C. Fifty μl of the reaction mixture was withdrawn immediately and 30 minutes after the addition of the NADPH solution and the proteins were precipitated with acetonitrile. The clear supernatant was analyzed by reversed phase LC-MS/MS (Applied Biosystems API-3000 with Hypersil-BDS C18 column and gradient elution), with internal standard area ratio quantification for the amount the compound remaining as shown in table 4.

T47D = assay: Alamar Blue antiproliferation assay, T47D; format: cell-based; details: 3 Day
HT29 = assay: Alamar Blue antiproliferation assay, HT29; format: cell-based; details: HT29, 3 Day
MES-SA/DX5 = assay: Alamar Blue antiproliferation assay, MES-SA/DX5; format: cell-based; details: MES-SA/DX5, 3 Day
H460 cells = assay: Alamar Blue antiproliferation assay, H460 cell line; format: cell-based, human
Experimental: (§1) To determine the effect of the compounds of the present invention on cell proliferation, the antiproliferative activity of these compounds was tested in a multi-well Alamar Blue based assay (at 2 h and 3 days). Cell growth in the presence and absence of the test compound as tabulated in Table 1 was compared, as measured by a fluorescence plate reader at excitation 550 nm and emission 590 nm (see Biosource International Inc., Tech Application Notes, Use of Alamar Blue in the measurement of Cell Viability and Toxicity, Determining IC50). H460 cells (ATCC HTB-177 ([…]), 4,000 cells/well/200 μl) and LNCap cells (ATCC CRL-1740, 6,000 cells/well/200 μl) were seeded in a 96 well plate in RPMI medium (Invitrogen Corporation, Carlsbad, Calif.). After 24 hours, these plates were divided into 3 groups—Control group, 2 h treatment group and 3 day treatment group.
(§2) In the 2 h treatment group, after 2 h the cells were rinsed to remove the test compound and incubated for 3 days, followed by staining with AlamarBlue. The cells in the 3-day treatment group were incubated for 3 days, followed by staining with AlamarBlue. In the Control group, AlamarBlue was added to the plate at (i) day 0 and (ii) day 3 and measured to establish the control reading. In all the groups, the capacity of the cells to proliferate was measured 6 hours after addition of AlamarBlue by a fluorescence plate reader at excitation 550 nm and emission 590 nm.

Plasma stability = format: in vitro ADME; details: mouse plasma, 5 μM, 37° C.
Experimental: For an assessment of plasma stability of compounds, commercially available mouse plasma (Bioreclamation, Hicksville, N.Y.) was added to a DMSO solution of a compound, to a concentration of 5 μM. The reaction mixture (50 μl) was withdrawn immediately and after 30 minutes at 37° C., proteins were precipitated with acetonitrile. The clear supernatant was analyzed by reversed phase LC-MS/MS and the amount the compound remaining quantified as shown in table 4.

cancer cell = assay: Cancer cell antiproliferation assay (cell line not stated); format: cell-based; details: summary statement; read-out: GI50 or IC50 in a cancer cell antiproliferation assay
Experimental: In one aspect, the present invention provides a compound of formula (I-VII) having a GI50, GI90, IC50, or IC50 of about 0.001 to about 1000 nM, about 0.01 to about 100 nm, about 0.1 to about 50 nM, and about 1 to about 10 nM in a cancer cell antiproliferation assay. In one embodiment, the present invention provides a compound of formula (I) having a GI50 or IC50 of about 0.01 to about 100 nm, about 0.1 to about 50 nm, and about 1 to about 10 nm in a cancer cell antiproliferation assay. In various embodiments, said antiproliferation assays employ cancer cell including but not limited to gastric, colon, breast, and non-small cell lung cancer. In various embodiments, the […] cancer cell used is MESSA or doxorubicin resistant MESSA/DX5 cell; the colon cancer cell is HT29 cell; the breast cancer cell is T47D cell; and the non-small cell lung cancer cell is H460 cell.
as §1, §2

[2] = Homo sapiens, NCI-H460, 72 h, 3 day treatment, read-out: GI50 (nM) 3 Days
[3] = Homo sapiens, NCI-H460, 2 h treatment, then 3 days incubation, read-out: GI50 (nM) 2 Hour

Row | SMILES | Metabolic stability (MLM, % remaining at 30 min) [1] [%] | GI50 (MES-SA; Homo sapiens, 72 h) [nM] | IC50 (cancer cell) [nM] | GI50 (T47D; Homo sapiens, 72 h) [nM] | GI50 (HT29; Homo sapiens, HT-29, 72 h) [nM] | GI50 (MES-SA/DX5; Homo sapiens, 72 h) [nM] | GI50 (H460 cells; [2]) [nM] | GI50 (H460 cells; [3]) [nM] | other results
1 | COc1cc(C(=O)c2n[nH]c3c(C#Cc4ccccn4)c(OC)ccc23)cc(OC)c1OC [Compound 68] | 17 ± 4 | – | – | – | – | – | – | – | GI50 (MES-SA): 1.6 nM; GI50 (T47D): 1.6 nM; GI50 (HT29): 1.6 nM; GI50 (MES-SA/DX5): 1.9 nM; GI50 (H460 cells; 3 day treatment, read-out: GI50 (nM) 3 Days): 1.4 nM
2 | C#Cc1c(OC)ccc2c(C(=O)c3cc(OC)c(OC)c(OC)c3)n[nH]c12 [Compound 72] | 40 ± 9 | 1.9 | 1 to 50 | 6.3 | 1.6 | 3.9 | 1.3 | – | Plasma stability (% remaining at 30 min) (Plasma stability): 105%
3 | COc1cc(C(=O)c2n[nH]c3c(C#N)c(OC)ccc23)cc(OC)c1OC [Compound 58] | 28 ± 6 | – | – | – | – | – | 15.8 | > 10000 | –
4 | COc1cc(C(=O)c2n[nH]c3c(C(N)=O)c(OC)ccc23)cc(OC)c1OC [Compound 60] | 94 ± 4 | – | – | – | – | – | 25.1 | > 1000 | –
5 | COc1cc(C(=O)c2n[nH]c3c(C#CC(C)O)c(OC)ccc23)cc(OC)c1OC (centres unmarked) [Compound 66] | 88 ± 11 | 15.8 | 1 to 50 | 6.3 | 12.6 | 10 | 10 | – | –
6 | COc1cc(C(=O)c2n[nH]c3c(CCCO)c(OC)ccc23)cc(OC)c1OC [Compound 55] | – | 12 | 1 to 50 | 25 | 10 | 15.8 | 7.9 | > 10000 | –
7 | COc1ccc2c(C(=O)c3cc(OC)c(OC)c(OC)c3)nn(CCO)c2c1 [Compound 64] | – | – | – | – | – | – | 630 | > 1000 | –
8 | COc1ccc2c(C(=O)c3cc(OC)c(OC)c(OC)c3)nn(CC(N)=O)c2c1 [Compound 63] | – | – | – | – | – | – | 630 | > 1000 | –
